In patent publication US20160251403A1, “PEPTIDE COMBINATIONS AND USES THEREOF IN TREATING DUST MITE ALLERGY” (ALK-ABELLO A/S, priority 2013, published 2016):
Residue numbers refer to the chain shown, from its start. No end group written: not given here.

How the values were obtained:
[1] = molecular target: DRB1_0301 (Homo sapiens, UniProt P01903+P01911, A100K/A102G/A103R/A169T/F55Y/I96L/K41T/L162R/M171V/P40S/Q125H/Q178H/Q39Y/R42S/S66N/T106N/T262R/W38E/Y61H); assay: Competitive MHC class II binding assay, DRB1_0301
[2] = molecular target: DRB1_0401 (Homo sapiens, UniProt P01903+P01911, A100K/A169T/F76Y/I96L/K127E/L162R/M171V/N62H/P40V/Q125Y/R42H/S133A/S149N/S66Y/V115G/V209L/W38E); assay: Competitive MHC class II binding assay, DRB1_0401
[3] = molecular target: DRB1_0405 (Homo sapiens, UniProt P01903+P01911, A100R/A169T/D86S/F76Y/I96L/K127E/L162R/M171V/N62H/P40V/Q125Y/R42H/S133A/S149N/S66Y/V115G/V209L/W38E); assay: Competitive MHC class II binding assay, DRB1_0405
[4] = molecular target: DRB1_0701 (Homo sapiens, UniProt P01903+P01911, A100R/A102G/A103Q/D57E/D86V/E43K/F76Y/K127E/L162R/M171V/P40G/Q125H/Q99D/R33Q/R42Y/R54Q/S133A/S66F/T210M/V115G/Y107V/Y59L/Y89S); assay: Competitive MHC class II binding assay, DRB1_0701;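 note: displacement of a radiolabeled reference peptide from purified HLA class II protein, with complex-bound radioactivity counted after 2–4 days of incubation and six concentrations spanning a 100,000-fold range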
[5] = molecular target: DRB1_0901 (Homo sapiens, UniProt P01903+P01911, A100R/A103E/D57H/D86V/F55Y/F60I/F76Y/I96F/K127E/L162R/M171V/P40D/Q125H/Q99R/R33Q/R42F/S133A/S66N/T210M/V115G/W38K/Y107V/Y59G/Y89S); assay: Competitive MHC class II binding assay, DRB1_0901;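 note: displacement of a radiolabeled probe peptide from purified HLA class II protein, bound counts read after two to four days incubation, six concentrations spanning 100,000-fold, unlabeled probe as reference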
[6] = molecular target: DRB1_1101 (Homo sapiens, UniProt P01903+P01911, A100R/A169T/A87E/I96F/K41T/L162R/M171V/P40S/Q125H/Q178H/Q39Y/Q99D/R42S/S66Y/T262R/V115G/W38E); assay: Competitive MHC class II binding assay, DRB1_1101
[7] = molecular target: DRB1_1201 (Homo sapiens, UniProt P01903+P01911, A100R/A169T/D57E/D86V/F55L/H45Y/K41T/L162R/M171V/P40S/Q125H/Q178H/Q39Y/Q99D/R42G/S66L/T262R/V114A/V67L/W38E/Y59H/Y61H/Y89S); assay: Competitive MHC class II binding assay, DRB1_1201
[8] = molecular target: DRB1_1302 (Homo sapiens, UniProt P01903+P01911, A100E/A169T/K41T/L162R/M171V/P40S/Q125H/Q178H/Q39Y/Q99D/R42S/S66N/T262R/V115G/W38E/Y61H); assay: Competitive MHC class II binding assay, DRB1_1302;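 note: purified HLA class II protein incubated two to four days with a radiolabeled reference binder and test peptide at six concentrations over a 100,000-fold range, complex-bound radioactivity counted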
[9] = molecular target: DRB1_1501 (Homo sapiens, UniProt P01903+P01911); assay: Competitive MHC class II binding assay, DRB1_1501
[10] = molecular target: DRB3_0101 (Homo sapiens, UniProt P01903+P79483); assay: Competitive MHC class II binding assay, DRB3_0101
[11] = molecular target: DRB3_0202 (Homo sapiens, UniProt P01903+P79483, A212P/D57E/F66Y/L67A/R103Q/R218S/R40L/S89Y/T80R/V86D/Y55F/Y59H); assay: Competitive MHC class II binding assay, DRB3_0202
[12] = molecular target: DRB5_0101 (Homo sapiens, UniProt P01903+Q30154); assay: Competitive MHC class II binding assay, DRB5_0101
[13] = molecular target: T1, DPA10103-DPB10201 (Homo sapiens, UniProt P04440+P20036, A65V/A84D/A85E/K98E); assay: Competitive MHC class II binding assay, DPA10103-DPB10201
T1 sequence (P20036 29-260): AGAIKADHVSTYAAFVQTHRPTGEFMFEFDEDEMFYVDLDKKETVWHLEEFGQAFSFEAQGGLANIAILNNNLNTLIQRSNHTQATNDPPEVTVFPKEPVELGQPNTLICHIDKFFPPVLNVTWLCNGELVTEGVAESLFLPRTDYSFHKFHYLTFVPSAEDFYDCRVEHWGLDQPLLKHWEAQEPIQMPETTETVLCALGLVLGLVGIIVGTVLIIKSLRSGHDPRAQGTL
T1 sequence (P04440 30-258 A65V/A84D/A85E/K98E): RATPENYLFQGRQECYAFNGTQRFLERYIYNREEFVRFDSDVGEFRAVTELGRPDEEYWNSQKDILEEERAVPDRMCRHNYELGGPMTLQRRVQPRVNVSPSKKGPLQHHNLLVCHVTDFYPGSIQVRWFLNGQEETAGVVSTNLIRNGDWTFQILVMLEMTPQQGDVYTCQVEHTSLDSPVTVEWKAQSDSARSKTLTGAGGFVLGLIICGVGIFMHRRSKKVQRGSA

[14] = molecular target: T2, DPA10103-DPB10401 (Homo sapiens, UniProt P04440+P20036); assay: Competitive MHC class II binding assay, DPA10103-DPB10401
T2 sequence (P20036 29-260): T1 sequence (P20036 29-260)
T2 sequence (P04440 30-258): T1 sequence (P04440 30-258 A65V/A84D/A85E/K98E) with V36A, D55A, E56A, E69K

[15] = molecular target: DQA10501-DQB10201 (Homo sapiens, UniProt P01909+P01920, A45G/A70V/D89A/E106A/E77G/E98D/H199R/L107V/N214S/P84L/P87L/T103K/T109R/T172A/T60S/V78E/V99I/Y58L/Y62S/Y69I/Y79F); assay: Competitive MHC class II binding assay, DQA10501-DQB10201
[16] = molecular target: DQA10501-DQB10301 (Homo sapiens, UniProt P01909+P01920); assay: Competitive MHC class II binding assay, DQA10501-DQB10301
[17] = molecular target: DQA10102-DQB10602; assay: Competitive MHC class II binding assay, DQA10102-DQB10602; conditions: read-out: HLA-DQA10102-DQB10602; positive binding at cutoff 1000 nM
[18] = molecular target: DQA10101-DQB10501 (Homo sapiens, UniProt P01909+P01920, A157S/A45G/A70V/C70R/D89V/E106S/E118A/E183D/E77G/F83G/G63E/H151Q/H199R/H252R/H253Q/I129T/I235V/I88M/INS77G/K197Q/L107V/L117V/L119Y/L178F/L71W/L74F/L85Q/L91A/L98M/M46L/N214S/P87R/Q116E/Q256R/Q57E/Q76K/R102G/R240Q/R75S/R78G/S102Y/S185I/S41F/S97I/T103A/T109R/T121G/T122I/T172A/T86R/V148I/V68A/V73E/Y34C/Y58G/Y62H); assay: Competitive MHC class II binding assay, DQA10101-DQB10501; conditions: positive binding at cutoff 1000 nM; read-out: HLA-DQA10101-DQB10501
[19] = molecular target: DRB1_0101 (Homo sapiens, UniProt P01903+P01911, A100R/D57E/F55L/F60I/F76Y/I96L/L162R/M171V/P40L/Q125E/R42F/V115G/Y59C); assay: Competitive MHC class II binding assay, DRB1_0101;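 note: competition against a radiolabeled probe peptide (0.1–1 nM) for purified HLA class II protein over 2–4 days, bound counts read after antibody capture, six competitor levels across 100,000-fold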
[20] = molecular target: DRB1_0802 (Homo sapiens, UniProt P01903+P01911, A100R/A103L/A169T/F76Y/H45Y/I96F/K41T/L162R/M171V/P40S/Q125H/Q178H/Q39Y/Q99D/R218S/R42G/S66Y/V115G/W38E); assay: Competitive MHC class II binding assay, DRB1_0802
[21] = molecular target: DRB4_0101 (Homo sapiens, UniProt P01903+P13762, G164S); assay: Competitive MHC class II binding assay, DRB4_0101
[22] = molecular target: DPA10201-DPB10101; assay: Competitive MHC class II binding assay, DPA10201-DPB10101; conditions: read-out: HLA-DPA10201-DPB10101; positive binding at cutoff 1000 nM
[23] = molecular target: T3, DPA10202-DPB10501 (Homo sapiens, UniProt P04440+P20036, A42M/A65V/A84E/F191V/F64L/G113D/G114E/K142R/L158P/M116V/M62Q/P115A/Q81R/R125K/T114A/T199I/T259P/V234M); assay: Competitive MHC class II binding assay, DPA10202-DPB10501; conditions: positive binding at cutoff 1000 nM; read-out: HLA-DPA10202-DPB10501
T3 sequence (P04440 30-258 A65V/A84E/F64L/G113D/G114E/M116V/P115A/R125K/T199I/V234M): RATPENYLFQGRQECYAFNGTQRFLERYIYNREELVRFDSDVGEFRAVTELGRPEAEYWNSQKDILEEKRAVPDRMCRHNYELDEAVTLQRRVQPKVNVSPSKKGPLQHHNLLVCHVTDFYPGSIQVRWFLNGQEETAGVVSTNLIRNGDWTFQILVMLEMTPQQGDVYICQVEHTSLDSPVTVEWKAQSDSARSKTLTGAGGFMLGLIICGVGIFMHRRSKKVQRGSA
T3 sequence (P20036 29-260 A42M/F191V/K142R/L158P/M62Q/Q81R/T114A/T259P): T1 sequence (P20036 29-260) with A14M, M34Q, Q53R, T86A, K114R, L130P, F163V, T231P

[24] = molecular target: DPA10201-DPB11401; assay: Competitive MHC class II binding assay, DPA10201-DPB11401; conditions: read-out: HLA-DPA10201-DPB11401; positive binding at cutoff 1000 nM

Row | IC50 [1] [nM] | IC50 [2] [nM] | IC50 [3] [nM] | IC50 [4] [nM] | IC50 [5] [nM] | IC50 [7] [nM] | IC50 [8] [nM] | IC50 [9] [nM] | IC50 [11] [nM] | IC50 [12] [nM] | IC50 [13] [nM] | IC50 [14] [nM] | IC50 [18] [nM] | IC50 [20] [nM] | IC50 [21] [nM] | Sequence | other results
1 | < 1000 | < 1000 | < 1000 | < 1000 | < 1000 | < 1000 | < 1000 | < 1000 | < 1000 | < 1000 | < 1000 | < 1000 | – | – | – | IEYIQHNGVVQESYYRYVAR [pep-049] | IC50 [6]: < 1000 nM; IC50 [10]: < 1000 nM; IC50 [15]: < 1000 nM; IC50 [16]: < 1000 nM; IC50 [17]: < 1000 nM
2 | – | < 1000 | < 1000 | < 1000 | < 1000 | – | < 1000 | < 1000 | < 1000 | < 1000 | – | < 1000 | < 1000 | < 1000 | < 1000 | ESAYLAYRNQSLDLAE [pep-009] | IC50 [19]: < 1000 nM; IC50 [22]: < 1000 nM
3 | < 1000 | < 1000 | – | < 1000 | < 1000 | < 1000 | < 1000 | < 1000 | < 1000 | < 1000 | < 1000 | – | < 1000 | < 1000 | < 1000 | QQYDIKYTWNVPKIA [pep-031] | IC50 [23]: < 1000 nM; IC50 [24]: < 1000 nM
